Laboratory results reported in US20040018482A1, “Loading and unloading of permeating protectants for cell, tissue, and organ cryopreservation by vitrification” (priority 1997, published 2004).
Blank lines part the entries; values can stand above or below the compound they belong to.

Columns and labels:
[1] = tested on: Drosophila melanogaster embryos; conditions: co-solute in ethylene glycol vitrification solution; cited from earlier work
isolated rat heart = assay: Cardiac function of isolated rat heart (working mode reperfusion) after DMSO loading and unloading
Protocol: Preparation of the Cardiac Explant: The animal experiments were conducted in accordance with the “Principles of Laboratory Animal Care” formulated by the Institute of Laboratory Animal Resources and the “Guide for the Care and Use of Laboratory Animals” prepared by the Institute of Laboratory Animal Resources and published by the National Institute of Health (NIH Publication No. 86-23, 1985). Male Sprague-Dawley rats (300-350g) were anesthetized with sodium pentobarbital (65 mg/kg, ip) and anticoagulated with heparin (250u, iv). The heart was excised and immediately immersed in ice-cold Krebs-Henseleit buffer (KHB), which contained (in mM): 118 NaCl, 11 glucose, 25 NaHCO3, 4.7 KCl, 1.2 MgSO4, 1.2 KH2PO4, 0.5 Na-EDTA, and 2.5 CaCl2. The aorta was cannulated and the heart retrograde perfused at 70 mm Hg for 9 min. with 36.5° C. KHB equilibrated with 95% 02/[…]. The perfusion was continued for 2 min. at 60 mm Hg with CP-11E saturated with 100% 02. The composition of CP-11E (in mM) was: 125 NaCl, 7 glucose, 1.2 KH2PO4, 10 mannitol, 15 MgSO4, 14 KCl, 10 Hepes, 0.02 EDTA, 0.28 CaCl2 , pH 7.5.
After CP-11E flush, the arrested heart was transferred to a perfusion apparatus (FIG. 1). Both CP-11EB and CP-11E+DMSO+mannitol were bubbled constantly with 100% 02. Perfusate was delivered via an aortic cannula by a peristaltic pump at a flow rate of 1 ml/min. Two experiments were performed at room temperature.
Experiment 0: The heart was gradually loaded with 30 wt % DMSO and immediately unloaded. No co-solutes were used. […]
Assessment of cardiac function: Cardiac function was assessed by working mode reperfusion with KHB at 11 mm Hg preload and 70 mm Hg after load. Heart rate (HR, beats/min), aortic and coronary flow (AF and CF, ml/min.), cardiac output (CO=AF+CF, ml/min.), systolic and diastolic aortic pressure (mm Hg) were recorded. Coronary vascular resistance and work were calculated according to Neely et al., 1967 (Neely et al. “Effect of Pressure Development on Oxygen Consumption by the Isolated Rat Heart ”. Am. J. Physiology, 212:804-12, 1967).

erythrocytes = assay: Hemolysis of rat erythrocytes after step loading and unloading with ethylene glycol vitrification solution; assay type: cell-based; conditions: added to 60 wt % EG+0.9 wt % NaCl vitrification solution; 60 min equilibration and two unloading steps; room temperature, pH 7.0; FIG. 1
Protocol: Blood was sampled from external jugular vein of rats after heart extrusion described in Example 1.
Step 1: 100 μl of blood were mixed with 100 μl of 30 wt % EG+0.9 wt % NaCl. Equilibration time 10 min.
Step 2: 1000 μl of vitrification solution vitrification solution containing mixture of 60 wt % EG+0.9 wt % NaCl with different amounts of glutamic acid monosodium Salt (GA) per gram of Vitrification solution were slowly (during 3-5 min.) added to the mixture obtained after Step 1.
After that the blood cells were equilibrated in Vitrification solution during 60 min. before unloading.
Step 1: After 60 min. equilibration in vitrification solution erythrocytes were centrifuged down (5 min. at 2000 g), 0.5 ml of supernatant was removed from each sample, and 0.5 ml of 3 wt % GA+0.9 wt % NaCl were added to each sample. […]
Concentration of free hemoglobin in supernatants collected from the samples after equilibration in Vitrification solution, first and second step of unloading was used to characterize the erythrocyte damage (hemolysis). The concentration of free hemoglobin was measured using 390 Turner spectrophotometer (at 550 nm wavelength) after adding 0.5 ml of supernatant to 3 ml of water. The hemolysis was measured as a ratio of hemoglobin concentration in the supernatants to the hemoglobin concentration in the mixture of 41.7 μl of blood with 3.5 ml water that was taken as 100% hemolysis. […]

[2] = Experiment 0: loaded to 30 wt % DMSO in 30 min, unloaded 60 min, no co-solutes (mannitol not present)

SMILES: NCC(=O)O [glycine]
effect on ethylene glycol permeation into embryos [1]: significantly diminished ethylene glycol permeation

SMILES: OC[C@@H](O)[C@@H](O)[C@H](O)[C@@H](O)CO [sorbitol]
effect on ethylene glycol permeation into embryos [1]: significantly diminished ethylene glycol permeation

SMILES: OC[C@@H](O)[C@@H](O)[C@H](O)[C@H](O)CO [mannitol]
effect of presence of mannitol on damage to the heart caused by high concentration of DMSO and changes in osmotic pressure (isolated rat heart; mannitol present during loading, perfusion and unloading (Experiments 1 and 2)): prevented damage to the heart

SMILES: N[C@@H](CCC(=O)O)C(=O)[O-].[Na+] [GA, glutamic acid monosodium Salt]
effect of co-solute on erythrocyte damage (hemolysis) (erythrocytes): protects erythrocytes from damage

SMILES: N[C@@H](CCC(=O)O)C(=O)O [glutamic acid]
effect on ethylene glycol permeation into embryos [1]: significantly diminished ethylene glycol permeation

recovery in function after unloading (isolated rat heart; [2]): no recovery in function
state of the heart (contracture) (isolated rat heart; [2]): developed contracture
SMILES: C[S+](C)[O-] [DMSO, dimethylsulfoxide]
